Experimental findings from patent US20240299542A1, “NATURAL KILLER CELLS ENGINEERED TO REDUCE OR ELIMINATE CBL-B AND USES THEREOF” (City of Hope, priority 2021, published 2024) are described below.

For one assay, the system named is IFN-γ. Put plainly: Intracellular IFN-γ flow cytometry of NK cells pretreated with Mertk inhibitors. The assay is classed as cell-based, human. As to conditions: for percentage of intracellular IFN-γ+ cells: 5 uM, 90 min pretreatment, then IL-15 (10 ng/ml) 24 h; for IFN-γ level lower than control with no inhibitor: in the presence of IL-15. How it is done:
(§1) FIGS. 5A-5D depict the results of a study showing that Cbl-b interacts with and regulates phosphorylation of Mertk in primary human NK cells. (FIG. 5A) Representative intracellular flow cytometric analysis of the TAM family receptors expression in primary human NK cells. Summarized data are shown from 6 donors. IgG1 is the isotype for Tyro3 and Axl, while IgG2 for Mertk. (FIG. 5B) The level of Mertk phosphorylation and Cbl-b in Cbl-b siRNA- or Scr siRNA-transduced primary human NK was measured by immunoblot analysis. Data presented are representative of five independent experiments. […] Data presented are representative of 4 donors performed in a similar fashion and are summarized in the panel below the representative flow dot plots. (FIG. 5D) Primary NK cells were pretreated with the Mertk inhibitors UNC2550 or UNC2881 (5 uM) for 90 min prior to 30 min activation by IL-15 (10 ng/ml). Data presented are representative of 4 donors performed in a similar fashion. Scr-scrambled; *P<0.05; ns, not significant. Data presented as mean±SEM.
Flow cytometry. To determine protein cell surface expression via flow cytometry, cells were stained with monoclonal antibodies at room temperature for 20 minutes and washed with FACS buffer prior to analysis using a Fortessa X-20 flow cytometer (BD Biosciences). For IFN-γ intracellular flow cytometric analysis, […] GolgiPlug (BD Biosciences) was added for 4 h before cell harvest; cells were then permeabilized and fixed using a Cytofix/Cytoperm Fixation/Permeabilization Solution Kit (BD Biosciences), followed by analysis with a Fortessa X-20 flow cytometer. Intracellular flow cytometric analysis of Mertk was performed similarly except that GolgiPlug was not added. Data was analyzed by using Flowjo V10 software (Tree Star, Ashland, OR, USA).
The TAM receptor family consists of Tyro3, Axl and Mertk, all of which are expressed in mature mouse NK cells (25) and are molecular substrates for Cbl-b ubiquitylation both in vitro and in vivo (17). To investigate the possible relationship between Cbl-b and the TAM receptor family in primary human NK cells, we detected the expression of the three TAM receptor members in NK cells. […] However, the level of total mertk is low in human NK cells (FIG. 10B), preventing us to characterize the mechanism associated with the p-Mertk regulation by Cbl-b. Next, primary human NK cells were pretreated with or without Mertk inhibitors (UNC2550 or UNC2881), followed by IL-15 stimulation.
For orientation: In flow cytometry, cells or beads pass a laser one at a time.

A further assay has as its system p-STAT5. Put plainly: p-STAT5 by immunoblot in IL-15-activated NK cells pretreated with Mertk inhibitors. The class given is cell-based, human. The note with it: 5 uM, 90 min pretreatment, then IL-15 (10 ng/ml) 30 min, vs no inhibitor. How it is done: as §1, with “(FIG. 5D) Primary NK cells were pretreated with the Mertk inhibitors UNC2550 or UNC2881 (5 uM) for 90 min prior to 30 min activation by IL-15 (10 ng/ml). Data presented are representative of 4 donors performed in a similar fashion. Scr-scrambled; *P<0.05; ns, not significant. Data presented as mean±SEM.” left out
Immunoblotting. […] Densitometric analysis was performed to quantify intensity of gel bands with Image J (National Institutes of Health).
The TAM receptor family consists of Tyro3, Axl and Mertk, all of which are expressed in mature mouse NK cells (25) and are molecular substrates for Cbl-b ubiquitylation both in vitro and in vivo (17). To investigate the possible relationship between Cbl-b and the TAM receptor family in primary human NK cells, we detected the expression of the three TAM receptor members in NK cells. […]

The subject of assay [1] is Cbl-b. Put plainly: Cbl-b protein by immunoblot after JAK or AKT inhibitor pretreatment and IL-15/IL-2 activation of primary NK cells. The class given is cell-based, human. How it is done:
FIGS. 2A-2E depict the results of a study showing that JAK-STAT and AKT pathways mediate upregulation of Cbl-b in NK cells. (FIG. 2A) Primary human NK cells were pretreated with the JAK3 inhibitor CP-690550 and the JAK1/2 inhibitor AZD1480 at various concentrations for 90 min prior to a 24 h activation by IL15 (10 ng/ml). NK cells were then harvested for quantification of Cbl-b protein expression by immunoblot analysis. Data are representative of 6 donors performed in a similar fashion. Densitometric quantification assessing the ratio of the Cbl-b protein to β-actin protein levels for 6 donors is summarized in (FIG. 2B) and (FIG. 2C). […] Data are representative of 5 donors performed in a similar fashion. Densitometric quantification assessing the ratio of the Cbl-b protein levels to β-actin protein levels for 5 donors is summarized in (FIG. 2E). *P<0.05, **P<0.01, ***P<0.001 by One-way ANOVA or Student's two-tailed paired t-test. Data are presented as mean±SEM.
(§2) Immunoblotting. Cells were harvested and suspended in RIPA lysis buffer (Thermo Fisher Scientific) on ice for 20 minutes. Equal amount of protein was resolved by 5-15% Criterion TGX gel (Bio-Rad) and then transferred onto a Nitrocellulose (NC) or PVDF membrane (Thermo Fisher Scientific). The membrane was incubated with a primary antibody at 4° C. overnight and an IRDye secondary antibody (Li-COR Biosciences) for 1 hour at room temperature. The immunoblots were visualized with Odyssey CLx Imager (Li-COR Biosciences). Densitometric analysis was performed to quantify intensity of gel bands with Image J (National Institutes of Health).
(§3) Since IL-15 utilizes select JAK-STAT proteins to initiate cellular activation, we pretreated primary NK cells with the JAK3 inhibitor CP-690550 (22) or the JAK1/2 inhibitor AZD1480 (23) in increasing concentrations prior to IL-15 stimulation then Cbl-b expression level was evaluated. […] As K562 cells were also able to induce expression of Cbl-b in primary human NK cells (FIG. 1B), we repeated the inhibitor experiments under the K562 cell stimulation.
Background: A western blot detects proteins with antibodies after separation by electrophoresis.

Assay [2] deals with Cbl-b. The assay can be described thus: Cbl-b protein by immunoblot after inhibitor pretreatment and K562 co-culture of primary NK cells. As to conditions: 10 uM, 90 min pretreatment, 24 h co-culture with K562 (E/T=10:1), vs vehicle control. The assay is classed as cell-based, human. How it is done: FIG. 7A Primary NK cells were pretreated with AZD1480 (10 uM), CP-690550 (10 uM) or Afuresertib (10 uM) for 90 min prior to a 24 h cocultured with K562 cells (E/T=10:1). The immunoblot data are representative of 3 donors in a similar fashion. Densitometric quantification assessing the ratio of Cbl-b protein levels to β-actin protein levels for 3 donors is summarized in FIG. 7B. *P<0.05, **P<0.01; ns, not significant. Data are presented as mean±SEM.
as §2, §3

Assay [3] deals with Cbl-b. Put plainly: Cbl-b protein by immunoblot after stimulation of primary human NK cells with cytokines or activating antibody. The class given is cell-based. How it is done: (FIG. 1B) Enriched primary human NK cells were co-cultured with the K562 myeloid leukemia cell line (E/T ratio=10:1) for 24 h followed by immunoblot analysis. Summary data are from three independent experiments. (FIG. 1C) Primary human NK cells were treated with different concentrations of IL-15 for 24 h followed by immunoblot analysis (n=5 donors). (FIG. 1D) Equal numbers of purified CD56^+ human NK cells, CD56^bright NK cells and CD56^dim NK cells were sorted from peripheral blood mononuclear cells isolated by Ficoll, cultured and stimulated with IL-15 (20 ng/ml for 24 h) followed by immunoblot analysis. The data are representative of three independent experiments. Med, medium only; *P<0.05, **P<0.01 by two-tailed unpaired t-test or One-way ANOVA; ns, not significant. Data are presented as mean±SEM.
FIG. 6A Enriched primary human NK cells were cocultured with Molm-13 or MV4-11 leukemia cell lines (E/T ratio=10:1) for 24 h prior to assessment of Cbl-b by immunoblot analysis. […] FIG. 6B Enriched primary human NK cells were cultured overnight with an anti-NKG2D activating antibody (clone 1D11) (10 μg/ml) or mouse IgG (10 μg/ml) as control prior to assessment of Cbl-b by immunoblot analysis. […] Data are shown summarizes four independent experiments. […] Data are shown summarizes five independent experiments. FIG. 6E The expression of Cbl-b was assessed by qRT-PCR after primary human NK cells were incubated with K562 cells (E/T ratio=10:1) for 24 h. Data are shown summarizes five independent experiments. *P<0.05, **P<0.01, compared to the shortest time point. Data are presented as mean±SEM.
as §2
We assessed the expression of Cbl-b protein in primary human NK cells enriched from the blood of healthy donors in response to 24-hour stimulation by different cytokines. […] Since certain tumor cells can trigger NK cell activation, we co-cultured NK cells for 24 h with different tumor cell lines in order to assess this effect on the expression of Cbl-b.

In assay [4] the test system is Cbl-b. The assay can be described thus: Cbl-b mRNA by qRT-PCR after IL-15 or IL-2 treatment of primary human NK cells. As to conditions: IL-15 (10 ng/ml) or IL-2 (150 IU/ml). The class given is cell-based.

As to `CCCCNc1ncc(C(=O)NCc2ccc(-n3ccnc3)cc2)c(NC2CCC(O)CC2)n1` (centres unmarked) [UNC2881], in the assay on IFN-γ, the “percentage of intracellular IFN-γ+ cells” value is reported as 5.49% and the “IFN-γ level lower than control with no inhibitor” value was “approximately 3 fold”. Further, the “level of p-STAT5” value with p-STAT5 is given as “decreased”.
The matching figures for UNC2550: 5.49%, “approximately 3 fold” and “decreased”.
As for `Cn1ncc(Cl)c1-c1cc(C(=O)N[C@H](CN)Cc2cccc(F)c2)sc1Cl` [Afuresertib], the “expression of Cbl-b protein after inhibitor pretreatment” value with Cbl-b [1] (10 uM, 90 min pretreatment, then IL-15 (10 ng/ml) or IL-2 (150 IU/ml) 24 h) is “nearly identical results”. Moreover, the “Cbl-b expression after inhibitor pretreatment under K562 stimulation” value with Cbl-b [2] is reported as “significant downregulation”.
On to “IL-15: Recombinant human IL-15 protein obtained from National Institutes of Health”, for which the “dose response of Cbl-b protein” value with Cbl-b [3] (different concentrations of IL-15, 24 h) is recorded as “did not find evidence of a dose response change”. Further, the “expression of Cbl-b protein (ratio to β-actin)” value with Cbl-b [3] (primary human NK cells, 24 h cytokine stimulation, compared to resting NK cells without cytokines) is “induced an increase in the expression of Cbl-b”. For the same compound, the “upregulation of Cbl-b mRNA at 24 h post stimulation” value with Cbl-b [4] (24 h) is “sustained”. In addition, in the assay on Cbl-b [4] (compared to unstimulated NK cells), the “time of peak Cbl-b mRNA” value is on record as 4 h.
Take `Cc1cc(Nc2nc(N[C@@H](C)c3ncc(F)cn3)ncc2Cl)n[nH]1` [AZD1480]: the “expression of Cbl-b protein after inhibitor pretreatment” value with Cbl-b [1] (90 min pretreatment at various concentrations, then IL-15 (10 ng/ml) 24 h, vs vehicle control) was “significant decrease”. Further, in the assay with Cbl-b [2], the “Cbl-b expression after inhibitor pretreatment under K562 stimulation” value was “only the AKT1/2/3 inhibitor Afuresertib rather than either of the two JAK inhibitors”.
